Where two headings read alike, the source gives them in different places. Where no end group is shown, it is not given here.
Columns and labels:
[1] = test system: tumor associated LDV binding sites; experiment: Binding to tumor associated LDV binding sites / tumor cells in vivo; transportation and clearance; set-up: species or system nude mice; conditions: in words
Procedure: (§1) In vivo experiments were performed in nude mice bearing HEp-2 and HT29 tumors obtained by injecting the nude mice subcutaneously in both flanks with from 2 to 5×10^6 HEp-2 and HT29 tumor cells and the tumors allowed to grow for three weeks.
(§2) In these experiments the nude tumor bearing mice divided into five groups were each injected subcutaneously with the ^125 I-labelled peptide
(§3) ^125 I-YGGLDVGLDVGGY (SEQ ID NO. 2).
(§4) (SEQ ID No. 2), and the uptake of labelled peptide measured against time. For this purpose the five groups were killed at intervals of 5 minutes, 30 minutes, 1 hour, 3 hours, and 6 hours after injection. At this time the blood and tumors were separately removed, weighed and counted for radioactivity, as well as samples taken from all major organs. […] At this point peptide uptake was 10.3% id per gram in blood, 4.5% id per gram in HEp-2 tumor and 3.0% id per gram in HT29 tumor.

[2] = test system: VLA-4; conditions: in words; expressed in vitro by tumour cells and resting CD4+ T-cells; see Shimizu et al; cited from earlier work
[3] = test system: activated platelets; conditions: Kloczewiak et al, cited from earlier work
[4] = test system: HT29 tumor; experiment: In vivo uptake of 125I-labelled peptide in HT29 tumor borne by nude mice (Experiment 2); conditions: 5 minutes after subcutaneous injection
Procedure: as §1, §2, §3, §4

[5] = In vivo uptake of 125I-labelled peptide in blood of tumor-bearing nude mice (Experiment 2); conditions: 5 minutes after subcutaneous injection; nude mice bearing HEp-2 and HT29 tumors
Procedure: as §1, §2, §3, §4

[6] = test system: HEp-2 tumor; experiment: In vivo uptake of 125I-labelled peptide in HEp-2 tumor borne by nude mice (Experiment 2); conditions: 5 minutes after subcutaneous injection
Procedure: as §1, §2, §3, §4

CS1 sequence of fibronectin: 25-unit oligopeptide having the sequence SEQ ID No. 1 (DELPQLVTLPHPLLHGPEILDVPST)
binding to tumor cells in vivo [1]: bind strongly to tumor cells in vivo
binding to VLA-4 [2]: known to bind to the cell adhesion molecule (CAM) VLA-4

HHLQLLKQLLDV [synthetic dodecapeptide, analogue of the γ400-411 residue, containing the LDV triplet (Kloczewiak et al)]
IC50 ([3]; Biochemistry 1989, read-out: concentration for 50% inhibition of fibrinogen binding to activated platelets): > 500 µM
IC50 ([3]; as restated, read-out: concentration necessary to obtain 50% inhibition of fibronectin binding to activated platelets): > 500 µM

^125 I-YGGLDVGLDVGGY: radio-labelled thirteen unit peptide YGGLDVGLDVGGY labelled with 125I (also: 125I radiolabel, position not given here)
peptide uptake in HT29 tumor [4]: 3.0 % id per gram
peptide uptake in blood [5]: 10.3 % id per gram
peptide uptake in HEp-2 tumor [6]: 4.5 % id per gram
